Measurements reported in EP4763839A1 (Pamplona Therapeutics (Shenzhen) Co., Ltd., priority 2023, dated 2025).
Counter-ions that a name gives are not always drawn.

Biological target: T1, IRAK4 (Homo sapiens, UniProt Q9NWZ3)
T1 sequence (Q9NWZ3 1-460): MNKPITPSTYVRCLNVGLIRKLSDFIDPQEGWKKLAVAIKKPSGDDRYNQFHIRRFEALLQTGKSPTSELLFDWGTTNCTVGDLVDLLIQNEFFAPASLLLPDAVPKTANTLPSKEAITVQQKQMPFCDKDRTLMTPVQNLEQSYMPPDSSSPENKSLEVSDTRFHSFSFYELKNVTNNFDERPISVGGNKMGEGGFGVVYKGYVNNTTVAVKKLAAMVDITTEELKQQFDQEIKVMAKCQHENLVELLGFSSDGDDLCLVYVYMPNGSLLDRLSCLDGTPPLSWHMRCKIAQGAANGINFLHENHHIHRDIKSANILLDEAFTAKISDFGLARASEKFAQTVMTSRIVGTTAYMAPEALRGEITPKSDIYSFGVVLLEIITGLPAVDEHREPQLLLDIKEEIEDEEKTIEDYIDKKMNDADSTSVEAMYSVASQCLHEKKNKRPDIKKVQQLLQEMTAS
Test: Degradation of IRAK4 in THP1 cells, Western blot
Assay type: cell-based
Design: Degradation of IRAK4 in THP1 by compound; host or cells: THP-1
Settings: THP-1 cells, 24 hours of incubation; for DC50: IRAK4 protein by Western blot, read-out: DC50; for Dmax: maximum degradation rate, read-out: Dmax
Procedure, shortened: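 Degradation rate derived from densitometry of IRAK4 bands versus DMSO-treated controls. Read-out: anti-IRAK4 immunoblot (10% gel, 40 μg total protein per lane, BCA-normalised) of lysates from THP1 cells incubated with compound for 24 h.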

Row | Structure (SMILES) | DC50 [nM] | Dmax [%]
1 | NC(=O)c1nn(-c2ccc(N3CCN(CC4CCN(c5ccc(NC6CCC(=O)NC6=O)cc5F)C4)CC3)cc2)cc1NC(=O)c1cccc(C(F)(F)F)n1 (centres unmarked) [Compound A361, N-(3-Carbamoyl-1-(4-(4-((1-(4-((2,6-dioxopiperidin-3-yl)amino)-2-fluorophenyl)pyrrolidin-3-yl)methyl)piperazin-1-yl)phenyl)-1H-pyrazol-4-yl)-6-(trifluoromethyl)picolinamide formate] | 100 to 1000 | 40 to 60
2 | NC(=O)c1nn(-c2ccc(N3CCN(C4CCN(c5ccc(NC6CCC(=O)NC6=O)cc5F)CC4)CC3)cc2)cc1NC(=O)c1cccc(C(F)(F)F)n1 (centres unmarked) [Compound A365, 1-{4-[4-(1-{4-[(2,6-dioxopiperidin-3-yl)amino]-2-fluorophenyl}piperidin-4-yl)piperazin-1-yl]phenyl}-4-({[6-(trifluoromethyl)pyridin-2-yl]carbonyl}amino)pyrazole-3-carboxamide] | < 100 | > 60
3 | Cn1c(=O)n(C2CCC(=O)NC2=O)c2cccc(N3CCC(C(=O)N4CCN(c5ccc(-n6cc(NC(=O)c7cccc(C(F)(F)F)n7)c(C(N)=O)n6)cc5)CC4)CC3)c21 (centres unmarked) [Compound A368, N-(3-Carbamoyl-1-(4-(4-(1-(1-(2,6-dioxopiperidin-3-yl)-3-methyl-2-oxo-2,3-dihydro-1H-benzo[d]imidazol-4-yl)piperidine-4-carbonyl)piperazin-1-yl)phenyl)-1H-pyrazol-4-yl)-6-(trifluoromethyl)picolinamide] | < 100 | > 60
4 | Cn1c(=O)n(C2CCC(=O)NC2=O)c2cccc(N3CCC(CN4CCN(c5ccc(-n6cc(NC(=O)c7cccc(C(F)(F)F)n7)c(C(=O)NC7CC7)n6)cc5)CC4)CC3)c21 (centres unmarked) [Compound A369, N-{3-[(cyclopropylamino)carbonyl]-1-{4-[4-({1-[1-(2,6-dioxopiperidin-3-yl)-3-methyl-2-oxobenzo[d]imidazol-4-yl]piperidin-4-yl}methyl)piperazin-1-yl]phenyl}pyrazol-4-yl}-6-(trifluoromethyl)pyridine-2-carboxamide formate] | < 100 | > 60
5 | Cn1c(=O)n(C2CCC(=O)NC2=O)c2cccc(CN3CCC(N4CCN(c5ccc(-n6cc(NC(=O)c7cccc(C(F)(F)F)n7)c(C(N)=O)n6)cc5)CC4)CC3)c21 (centres unmarked) [Compound A372] | < 100 | > 60
6 | Cn1c(=O)n(C2CCC(=O)NC2=O)c2cccc(N3CCC(N4CCN(Cc5ccc(-n6cc(NC(=O)c7cccc(C(F)(F)F)n7)c(C(N)=O)n6)cc5)CC4)CC3)c21 (centres unmarked) [Compound A373, N-(3-Carbamoyl-1-(4-(4-(1-(1-(2,6-dioxopiperidin-3-yl)-3-methyl-2-oxo-2,3-dihydro-1H-benzo[d]imidazol-4-yl)piperidin-4-yl)piperazin-1-yl)methyl)phenyl)-1H-pyrazol-4-yl)-6-(trifluoromethyl)picolinamide formate] | < 100 | > 60
7 | NC(=O)c1nn(C2CCC(N3CCN(CC4CCN(c5ccc(NC6CCC(=O)NC6=O)cc5F)CC4)CC3)CC2)cc1NC(=O)c1cccc(C(F)(F)F)n1 (centres unmarked) [Compound A374] | < 100 | > 60
8 | NC(=O)c1nn(-c2ccc(N3CCN(CC4CCN(c5ccc(OC6CCC(=O)NC6=O)cn5)CC4)CC3)cc2)cc1NC(=O)c1cccc(C(F)(F)F)n1 (centres unmarked) [Compound A377, N-(3-Carbamoyl-1-(4-(4-((1-(5-((2,6-dioxopiperidin-3-yl)oxy)pyridin-2-yl)piperidin-4-yl)methyl)piperazin-1-yl)phenyl)-1H-pyrazol-4-yl)-6-(trifluoromethyl)picolinamide] | < 100 | > 60
9 | NC(=O)c1nn(-c2ccc(N3CCN(C4CCN(c5ccc(C(=O)NC6CCC(=O)NC6=O)cc5F)CC4)CC3)cc2)cc1NC(=O)c1cccc(C(F)(F)F)n1 (centres unmarked) [Compound A378, 1-(4-{4-[1-(4-{[(2,6-Dioxopiperidin-3-yl)amino]carbonyl}-2-fluorophenyl)piperidin-4-yl]piperazin-1-yl}phenyl)-4-({[6-(trifluoromethyl)pyridin-2-yl]carbonyl}amino)pyrazole-3-carboxamide] | < 100 | > 60
10 | NC(=O)c1nn(-c2ccc(N3CCN(C4CCN(c5ccc(C(=O)NC6CCC(=O)NC6=O)nc5)CC4)CC3)cc2)cc1NC(=O)c1cccc(C(F)(F)F)n1 (centres unmarked) [Compound A379, N-(3-Carbamoyl-1-(4-(4-(1-(6-((2,6-dioxopiperidin-3-yl)carbamoyl)pyridin-3-yl)piperidin-4-yl)piperazin-1-yl)phenyl)-1H-pyrazol-4-yl)-6-(trifluoromethyl)picolinamide] | < 100 | > 60
11 | Cn1c(=O)n(C2CCC(=O)NC2=O)c2cccc(N3CCC(CN4CCN(C5CCC(n6cc(NC(=O)c7cccc(C(F)(F)F)n7)c(C(N)=O)n6)CC5)CC4)CC3)c21 (centres unmarked) [Compound A380] | < 100 | > 60
12 | N#Cc1cccc(C(=O)Nc2cn(-c3ccc(N4CCN(CC5CCN(c6ccc(NC7CCC(=O)NC7=O)cc6F)CC5)CC4)cc3)nc2C(N)=O)n1 (centres unmarked) [Compound A384, N-(3-Carbamoyl-1-(4-(4-((1-(4-((2,6-dioxopiperidin-3-yl)amino)-2-fluorophenyl)piperidin-4-yl)methyl)piperazin-1-yl)phenyl)-1H-pyrazol-4-yl)-6-cyanopicolinamide] | > 1000 | < 40
13 | CC(C)(O)c1nn(-c2ccc(N3CCN(CC4CCN(c5ccc(NC6CCC(=O)NC6=O)cc5F)CC4)CC3)cc2)cc1NC(=O)c1cncc(C#N)c1 (centres unmarked) [Compound A385, 5-Cyano-N-(1-(4-(4-((1-(4-((2,6-dioxopiperidin-3-yl)amino)-2-fluorophenyl)piperidin-4-yl)methyl)piperazin-1-yl)phenyl)-3-(2-hydroxypropan-2-yl)-1H-pyrazol-4-yl)nicotinamide] | > 1000 | < 40
14 | CC(C)(O)c1nn(-c2ccc(N3CCN(CC4CCN(c5ccc(NC6CCC(=O)NC6=O)cc5F)CC4)CC3)cc2)cc1NC(=O)c1cccc(C#N)n1 (centres unmarked) [Compound A386, 6-Cyano-N-(1-(4-(4-((1-(4-((2,6-dioxopiperidin-3-yl)amino)-2-fluorophenyl)piperidin-4-yl)methyl)piperazin-1-yl)phenyl)-3-(2-hydroxypropan-2-yl)-1H-pyrazol-4-yl)picolinamide] | > 1000 | < 40
15 | N#Cc1ccnc(C(=O)Nc2cn(-c3ccc(N4CCN(C5CCN(c6ccc(NC7CCC(=O)NC7=O)cc6F)CC5)CC4)cc3)nc2C(N)=O)c1 (centres unmarked) [Compound A387, N-(3-Carbamoyl-1-(4-(4-(1-(4-((2,6-Dioxopiperidin-3-yl)amino)-2-fluorophenyl)piperidin-4-yl)piperazin-1-yl)phenyl)-1H-pyrazol-4-yl)-4-cyanopicolinamide] | > 1000 | < 40
16 | N#Cc1cccc(C(=O)Nc2cn(-c3ccc(N4CCN(C5CCN(c6ccc(NC7CCC(=O)NC7=O)cc6F)CC5)CC4)cc3)nc2C(N)=O)n1 (centres unmarked) [Compound A388, N-(3-Carbamoyl-1-(4-(4-(1-(4-((2,6-Dioxopiperidin-3-yl)amino)-2-fluorophenyl)piperidin-4-yl)piperazin-1-yl)phenyl)-1H-pyrazol-4-yl)-6-cyanopicolinamide] | > 1000 | < 40
